Test results published in article PMC10107299, “Neutralizing the Impact of the Virulence Factor LecA from Pseudomonas aeruginosa on Human Cells with New Glycomimetic Inhibitors” (Angewandte Chemie (International Ed. in English), 2023).
Several values for one entry are separate records, joined by “and”; a condition that tells them apart may be missing. Equal values may be shown once.

Legend:
[1] = Plasma protein binding (rapid equilibrium device), murine plasma; format: in vitro ADME, mouse; conditions: CD-1, mouse, plasma, read-out: PPB Mouse (converted)
Description: (§1) mixer (Eppendorf). Acetonitrile and caffeine were dispensed using a Mantis Formulatrix. Then samples were centrifuged for 20 min at 2.270 x g at 4 °C and the supernatants were transferred to 96-well Greiner V-bottom plates. Peak areas of each compound and of the internal standard were analyzed using the MultiQuant 3.0 software (AB Sciex). Peak areas of the respective compound were normalized to the internal standard peak area and to the respective peak areas at time point 0 min: (C/D)/(A/B) with A: peak area of the compound at time point 0 min, B: peak area of the internal standard at time point 0 min, C: peak area of the compound at the respective time point, D: peak area of the internal standard at the respective time point. […]
(§2) Assessment of plasma protein binding
(§3) Plasma protein binding was assessed using the rapid equilibrium device (RED) system from ThermoFisher. Compounds were dissolved in DMSO. […]
(§4) high plasma protein binding. Compounds were diluted in murine plasma (from CD-1 mice, pooled) or in human plasma (human donors, both genders, pooled) to a final concentration of 1 µM. Dialysis buffer and plasma samples were added to the respective chambers according the manufacturer’s protocol. The RED plate was sealed with a tape and incubated at 37 °C for 2 hours at 800 rpm on an Eppendorf MixMate vortex-mixer. Then samples were withdrawn from the respective chambers. To 25 µL of each dialysis sample, 25 µL of plasma and to 25 µL of plasma sample, 25 µL of dialysis buffer was added. Then 150 µL ice-cold extraction solvent (ACN/H2O (90:10) containing 12.5 ng/mL caffeine as internal standard) was added. Samples were incubated for 30 min on ice. Then samples were centrifuged at 4 °C at 2270 x g for 10 min.
(§5) Supernatants were transferred to Greiner V-bottom 96-well plates and sealed with a tape. The […]
(§6) percentage of bound compound was calculated as follows:
(§7) (1) % free = (concentration buffer chamber / concentration plasma chamber) *100 […]
(§8) Samples were analyzed using an Agilent 1290 Infinity II HPLC system coupled to an AB Sciex QTrap 6500plus mass spectrometer. LC conditions were as follows: column: Agilent […]
(§9) Zorbax Eclipse Plus C18, 50x2.1 mm, 1.8 µm; temperature: 30 °C; injection volume: 5 µL per […]
(§10) sample; flow rate: 700 µL/min. Samples were run under acidic and buffered conditions.
(§11) Solvents for acidic conditions: A1: water + 0.1% formic acid; solvent B1: 95% acetonitrile/5% […]
(§12) H2O + 0.1% formic acid; solvents for buffered conditions: A2: 95% water + 5% acetonitrile + […]
(§13) 5 mM ammonium acetate + 40 µL/L acetic acid; B2: 95% acetonitrile + 5% water + 5 mM […]
(§14) ammonium acetate + 40 µL/L acetic acid. The same gradient was applied for acidic and […]
(§15) buffered conditions: 99% A at 0 min, 99% A until 1 min, 99% - 0% A from 1 min to 4.0 min, […]
(§16) 0% A until 5.0 min. Mass transitions for controls and compounds are depicted in the following […]

[2] = Plasma protein binding (rapid equilibrium device), human plasma; format: in vitro ADME; conditions: both sexes, human, plasma, read-out: PPB Human (converted)
Description: as §1, §2, §3, §4, §5, §6, §7, §8, §9, §10, §11, §12, §13, §14, §15, §16

LecA = target: T1, LecA (Pseudomonas aeruginosa, UniProt Q05097); assay: Isothermal titration microcalorimetry (ITC) with LecA; format: binding; conditions: for -TΔS (supplement) / ΔS: ITC average ± s.d.; for Relative potency r.p. (ITC): compared to respective monovalent compound in each series; for ΔG, individual titration / ΔH, individual titration: LecA 35-182 µM, ligand 100 µM-1.5 mM as headed
T1 construct: made in house
Text: Due to the high solubility of the propanamides in the pyridine series and the sulfonated ligand L2, we determined binding thermodynamics with LecA using isothermal titration microcalorimetry (ITC, Figure 3, Figures S5–S9). […] In both cases, the enthalpy of binding increased approximately twofold (I2: ΔH=−23.9±1.2 kcal mol^−1, L2: ΔH=−19.5±1.3 kcal mol^−1) compared to their monovalent analogues (G2: ΔH=−11.0±0.2 kcal mol^−1, K2: ΔH=−10.3±0.1 kcal mol^−1), while the binding entropy was increased approximately threefold (G2: −TΔS=3.8±0.2 kcal mol^−1 vs. I2: −TΔS=13.7±1.3 kcal mol^−1, K2: −TΔS=3.2±0.2 kcal mol^−1 vs. L2: −TΔS=9.4±1.3 kcal mol^−1).
Figure 3 Direct binding of selected ligands to LecA by ITC (N=3). Titration of LecA (50 μM) with divalent sulfonated ligand L2 (250 μM) is depicted. Relative potencies (r.p.) were calculated compared to respective monovalent compound in each series and […]. TEXT PRINTED IN THE PICTURE: G2: ΔG [kcal/mol]: -7.2 ± 0.1; ΔH [kcal/mol]: -11.0 ± 0.2; -TΔS [kcal/mol]: 3.8 ± 0.2; N: 1.07 ± 0.06; Kd [nM]: 5 270 ± 30; r.p.: 1 | I2: ΔG [kcal/mol]: -10.2 ± 0.2; ΔH [kcal/mol]: -23.9 ± 1.2; -TΔS [kcal/mol]: 13.7 ± 1.3; N: 0.43 ± 0.01; Kd [nM]: 35.1 ± 12.5; r.p.: 150 | J2: ΔG [kcal/mol]: -9.7 ± 0.2; ΔH [kcal/mol]: -13.5 ± 0.4; -TΔS [kcal/mol]: 3.8 ± 0.5; N: 0.61 ± 0.06; Kd [nM]: 79.5 ± 32.8; r.p.: 66 | K2: ΔG [kcal/mol]: -7.1 ± 0.1; ΔH [kcal/mol]: -10.3 ± 0.1; -TΔS [kcal/mol]: 3.2 ± 0.2; N: 1.08 ± 0.13; Kd [nM]: 6 230 ± 440; r.p.: 1 | L2: ΔG [kcal/mol]: -10.1 ± 0.1; ΔH [kcal/mol]: -19.5 ± 1.3; -TΔS [kcal/mol]: 9.4 ± 1.3; N: 0.52 ± 0.06; Kd [nM]: 39.9 ± 3.6; r.p.: 156 […]
Expression and purification of LecA as well as competitive binding by fluorescence polarization was performed as described by Joachim et al..[9] The assay was performed in TBS/Ca2+ buffer (20 mM Tris, 137 mM NaCl, 2.6 mM KCl at pH 7.4 supplemented with 1 mM […]
CaCl2) in presence of 25% DMSO. […]
Isothermal titration calorimetry was performed on an iTC200 (Malvern Panalytical) and the data were analyzed using Microcal Origin software (Malvern Panalytical). LecA (50 - 180 […]
K2 and L2 and TBS/Ca2+ buffer supplemented with 5% DMSO for I2 and J2. Steep titration slopes achieved with the divalent ligands were the result of high amount of protein present and the high binding affinity of the ligand (high ‘value of c’).[10] However, LecA protein […]
low heat released upon binding. […]

[3] = ITC average, 25 °C, TBS/Ca2+ buffer (5% DMSO for I2 and J2), N=3
[4] = Kd (ITC), ITC average, 25 °C, TBS/Ca2+ buffer
[5] = Kd, individual titration, single ITC titrations, three per ligand
[6] = single ITC titrations, three per ligand

T1 sequence (Q05097 whole entry): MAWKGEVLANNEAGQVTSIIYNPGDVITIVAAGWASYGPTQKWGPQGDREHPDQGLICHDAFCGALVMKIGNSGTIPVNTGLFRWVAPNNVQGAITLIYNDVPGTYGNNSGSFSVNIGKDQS

| SMILES | fraction unbound at 2 h, 1 µM [1] | fraction unbound at 2 h, 1 µM [2] | -TΔS (supplement) (LecA; 25 °C) [kcal/mol] | ΔS (LecA; 25 °C) [cal/mol/K] | N (stoichiometry) (LecA; ITC average, 25 °C, N=3) | -TΔS (LecA; [3]) [kcal/mol] | ΔG (LecA; [3]) | ΔH (LecA; [3]) [kcal/mol] | Kd (LecA; [4]) [µM] | Kd (LecA; [5]) | Relative potency r.p. (ITC) (LecA) | N, individual titration (LecA; [6]) | ΔS, individual titration (LecA; [6]) | ΔG, individual titration (LecA; [6]) | ΔH, individual titration (LecA; [6]) | Kd (LecA; Kd (ITC), ITC average, 25 °C, TBS/Ca2+ buffer (5% DMSO for I2 and J2), N=3) [µM] |
| --- | --- | --- | --- | --- | --- | --- | --- | --- | --- | --- | --- | --- | --- | --- | --- | --- |
| O=C(/C=C/c1ccc(O[C@@H]2O[C@H](CO)[C@H](O)[C@H](O)[C@H]2O)cc1)Nc1ccc(OCCOc2ccc(NC(=O)/C=C/c3ccc(O[C@@H]4O[C@H](CO)[C@H](O)[C@H](O)[C@H]4O)cc3)cc2)cc1 [Compound D1] | 0.006 | 0.004 | – | – | – | – | – | – | – | – | – | – | – | – | – | – |
| O=C(CCc1ccc(O[C@@H]2O[C@H](CO)[C@H](O)[C@H](O)[C@H]2O)cc1)Nc1ccc(OCCOc2ccc(NC(=O)CCc3ccc(O[C@@H]4O[C@H](CO)[C@H](O)[C@H](O)[C@H]4O)cc3)cc2)cc1 [Compound D2] | – | 0.005 | – | – | – | – | – | – | – | – | – | – | – | – | – | – |
| COc1ccc(NC(=O)CCc2ccc(O[C@@H]3O[C@H](CO)[C@H](O)[C@H](O)[C@H]3O)cc2)cn1 [Compound G2] | – | – | 3.8 ± 0.2 | -12.8 ± 0.6 | 1.07 ± 0.06 | 3.8 ± 0.2 | -7.2 ± 0.01 kcal/mol and -7.2 ± 0.1 kcal/mol | -11.0 ± 0.2 | 5.27 ± 0.03 | 5.32 µM and 5.26 µM and 5.24 µM | 1 | 1.10 and 1.13 and 0.99 | -12.5 cal/mol/K and -13.7 cal/mol/K and -12.3 cal/mol/K | -7.2 kcal/mol | -10.9 kcal/mol (2×) and -11.3 kcal/mol | – |
| O=C(CCc1ccc(O[C@@H]2O[C@H](CO)[C@H](O)[C@H](O)[C@H]2O)cc1)Nc1ccc(OCCOc2ccc(NC(=O)CCc3ccc(O[C@@H]4O[C@H](CO)[C@H](O)[C@H](O)[C@H]4O)cc3)cn2)nc1 [Compound H2] | 0.03 | 0.005 | – | – | – | – | – | – | – | – | – | – | – | – | – | – |
| Cc1ccc(NC(=O)CCc2ccc(O[C@@H]3O[C@H](CO)[C@H](O)[C@H](O)[C@H]3O)cc2)cc1S(=O)(=O)O [Compound K2] | – | – | 3.2 ± 0.2 | -10.7 ± 0.6 | 1.08 ± 0.13 | 3.2 ± 0.2 | -7.1 ± 0.1 kcal/mol | -10.3 ± 0.1 | 6.23 ± 0.44 | 6.33 µM and 5.65 µM and 6.71 µM | 1 | 1.25 and 1.05 and 0.94 | -10.0 cal/mol/K and -11.3 cal/mol/K and -10.7 cal/mol/K | -7.1 kcal/mol (2×) and -7.2 kcal/mol | -10.3 kcal/mol and -10.1 kcal/mol and -10.4 kcal/mol | – |
| O=C(CCc1ccc(O[C@@H]2O[C@H](CO)[C@H](O)[C@H](O)[C@H]2O)cc1)Nc1ccc(CCc2ccc(NC(=O)CCc3ccc(O[C@@H]4O[C@H](CO)[C@H](O)[C@H](O)[C@H]4O)cc3)cc2S(=O)(=O)O)c(S(=O)(=O)O)c1 [Compound L2] | 0.86 | 0.62 | 9.4 ± 1.3 | -31.6 ± 4.4 | 0.52 ± 0.06 | 9.4 ± 1.3 | -10.1 ± 0.1 kcal/mol | -19.5 ± 1.3 | – | 0.0448 µM and 0.038 µM and 0.0368 µM | 156 | 0.56 and 0.55 and 0.44 | -27.5 cal/mol/K and -37.6 cal/mol/K and -29.6 cal/mol/K | -10.0 kcal/mol and -10.1 kcal/mol (2×) | -18.9 kcal/mol and -18.3 kcal/mol and -21.4 kcal/mol | 0.0399 ± 0.0036 |
